Our source for the refractive index, surface tension liquid-gas and viscosity values is the NIST ThermoML archive (doi:10.1016/j.jct.2012.06.023).

Data set [1] can be described thus: refractive index (Na D-line) (dimensionless). Conditions: 293.1 K; 101.33 kPa; Liquid; Standard Abbe refractometry.
For data set [2] the following is noted: 298.15 K; for surface tension liquid-gas: Wilhelmy plate; for viscosity: 101.33 kPa, Liquid, Concentric cylinders viscometry.
Data set [3] is described as follows: xn = mol fraction of the nth substance listed. Particulars: x1 = 1; for surface tension liquid-gas: Wilhelmy plate; for viscosity: 101 kPa, Liquid, Concentric cylinders viscometry.

± gives the expanded uncertainty stated by the source.

On to `CCCCCCCO` [heptan-1-ol], for which, in data set [1], the refractive index worked out at 1.424 ± 0.02. Besides, in data set [2], the surface tension liquid-gas turned out to be 26.47 ± 0.13 mN/m and the viscosity was determined as 5.944 ± 0.038 mPa·s.
Turning to `CN(C)C=O` [dimethylformamide] + CCCCCO, the surface tension liquid-gas came out at 35.2 ± 0.04 mN/m in data set [3] (298.15 K), 34.1 ± 0.04 mN/m in data set [3] (303.15 K), 33 ± 0.04 mN/m in data set [3] (308.15 K) and 32 ± 0.03 mN/m in data set [3] (313.15 K). Besides, the viscosity in data set [3] (298.15 K) came to 0.8162 ± 0.0092 mPa·s; in data set [3] (303.15 K), 0.7678 ± 0.0091 mPa·s; in data set [3] (308.15 K), 0.7262 ± 0.009 mPa·s; in data set [3] (313.15 K), 0.678 ± 0.0089 mPa·s.
In the case of `CCCCCCO` [hexan-1-ol], the refractive index in data set [1] is 1.418 ± 0.001. Further, the viscosity in data set [2] came to 4.593 ± 0.022 mPa·s.
Regarding `CN(C)C=O` [dimethylformamide] + CCCCCCO, the surface tension liquid-gas in data set [3] (298.15 K) is 35.2 ± 0.04 mN/m; in data set [3] (303.15 K) it was 34.1 ± 0.04 mN/m; in data set [3] (308.15 K), 33 ± 0.04 mN/m; in data set [3] (313.15 K), 32 ± 0.03 mN/m. For the same compound, the viscosity in data set [3] (298.15 K) was determined as 0.8162 ± 0.0092 mPa·s; in data set [3] (303.15 K) it was 0.7678 ± 0.0091 mPa·s; in data set [3] (308.15 K), 0.7262 ± 0.009 mPa·s; in data set [3] (313.15 K) it was 0.678 ± 0.0089 mPa·s.
For the compound `CCCCCO` [pentan-1-ol], the refractive index in data set [1] is recorded as 1.409 ± 0.02. In addition, in data set [2], the surface tension liquid-gas was 24.55 ± 0.062 mN/m and the viscosity is recorded as 3.5 ± 0.018 mPa·s.
On the same counts, the results for `CN(C)C=O` [dimethylformamide] are 1.429 ± 0.02, 35.2 ± 0.04 mN/m and 0.8162 ± 0.0092 mPa·s.
`CN(C)C=O` [dimethylformamide] + CCCCCCCO: the surface tension liquid-gas was found to be 35.2 ± 0.04 mN/m in data set [3] (298.15 K), 34.1 ± 0.04 mN/m in data set [3] (303.15 K), 33 ± 0.04 mN/m in data set [3] (308.15 K) and 32 ± 0.03 mN/m in data set [3] (313.15 K). Also, the viscosity in data set [3] (298.15 K) is reported as 0.8162 ± 0.0092 mPa·s; in data set [3] (303.15 K), 0.7678 ± 0.0091 mPa·s; in data set [3] (308.15 K), 0.7262 ± 0.009 mPa·s; in data set [3] (313.15 K), 0.678 ± 0.0089 mPa·s.
